Key:
[1] = system: spontaneously hypertensive rats (SHR); assay: Antihypertensive effect, oral administration to spontaneously hypertensive rats (mean blood pressure and heart rate); type: in vivo, rat; conditions: for Changes in average blood pressures after administration: Table 3; for Change in blood pressure after 3 hrs. from administration: Table 1, 10 mg./kg.; for Changes in blood pressure (BP) after oral administration / Changes in heart rate (HR) after oral administration: Table 2, male SHR, n=5, p.o.
Protocol: Antihypertensive effect was determined by oral administration of the test compound to spontaneously hypertensive rats (hereinafter referred to as SHR).
These SHR were anesthetized with ether and chronically embedded with a cannula for determination of blood pressure so that one end of the said cannula may be placed in abdominal aorta and the other end thereof may be projected out of dorsal neck. When rats regained their body weight before operation in more than 1 week from operation, the test compound was given. Determination was made by measuring a mean blood pressure and a heart rate under unanesthetized and unrestrained conditions with the cannula connected to an electronic recording system. The test compound was suspended in a 1% tragacanth gum solution to make up a concentration so as to be a volume of 5 ml./kg. and then orally given.

ICR strain male mice = assay: in vivo; type: in vivo; conditions: 8 animals per group, 1 week
Protocol: ICR strain male mice, weighing 30-35 g., were deprived of food for 6 hours (water ad libitum) and then used in the experiment. Each group consisted of 8 animals. The test compound was suspended in a 1% tragacanth gum solution so as to be a volume of 40 ml./kg. and orally given. After administration, numbers of deceased animals, changes in body weight and other general states were observed or determined over 1 week.
Survived mice were autopsyed.

Molecule: COc1cc2nc(N3CCN(C(=O)C=Cc4ccsc4)CC3)nc(N)c2cc1OC [compound 36, 2-{4-[3-(Thiophen-3-yl)-acryloyl]-piperazin-1-yl}-4-amino-6,7-dimethoxyquinazoline]
- Changes in average blood pressures after administration ([1]; SHR, p.o., 1 mg./kg., 1 hr.): -18 mmHg
- Changes in average blood pressures after administration ([1]; SHR, p.o., 1 mg./kg., 3 hrs.): -20 mmHg
- Changes in average blood pressures after administration ([1]; SHR, p.o., 1 mg./kg., 6 hrs.): -27 mmHg
- Changes in average blood pressures after administration ([1]; SHR, p.o., 1 mg./kg., 24 hrs.): 3 mmHg
- Changes in average blood pressures after administration ([1]; SHR, p.o., 3 mg./kg., 1 hr.): -47 mmHg
- Changes in average blood pressures after administration ([1]; SHR, p.o., 3 mg./kg., 3 hrs.): -30 mmHg
- Changes in average blood pressures after administration ([1]; SHR, p.o., 3 mg./kg., 6 hrs.): -35 mmHg
- Changes in average blood pressures after administration ([1]; SHR, p.o., 3 mg./kg., 24 hrs.): 0 mmHg

Molecule: COc1cc2nc(N3CCN(C(=O)C=Cc4ccc([N+](=O)[O-])o4)CC3)nc(N)c2cc1OC [compound 33, 2-{4-[3-(5-Nitrofuran-2-yl)-acryloyl]-piperazin-1-yl}-4-amino-6,7-dimethoxyquinazoline]
- Changes in average blood pressures after administration ([1]; SHR, p.o., 3 mg./kg., 1 hr.): -15 mmHg
- Changes in average blood pressures after administration ([1]; SHR, p.o., 3 mg./kg., 3 hrs.): -20 mmHg
- Changes in average blood pressures after administration ([1]; SHR, p.o., 3 mg./kg., 6 hrs.): -11 mmHg
- Changes in average blood pressures after administration ([1]; SHR, p.o., 3 mg./kg., 24 hrs.): 3 mmHg

Molecule: C=CCOc1ccc(C=CC(=O)N2CCN(c3nc(N)c4cc(OC)c(OC)cc4n3)CC2)cc1 [compound 17, 2-[4-(4-Allyloxycinnamoyl)-piperazin-1-yl]-4-amino-6,7-dimethoxyquinazoline]
- Change in blood pressure after 3 hrs. from administration ([1]; SHR, p.o., 3 hrs.): -18 mmHg

Molecule: COc1cc(C=CC(=O)N2CCN(c3nc(N)c4cc(OC)c(OC)cc4n3)CC2)cc(OC)c1 [compound 13, 2-[4-(3,5-Dimethoxycinnamoyl)-piperazin-1-yl]-4-amino-6,7-dimethoxyquinazoline]
- Change in blood pressure after 3 hrs. from administration ([1]; SHR, p.o., 3 hrs.): -12 mmHg

Molecule: COc1cc2nc(N3CCN(C(=O)C=Cc4ccc(C)cc4)CC3)nc(N)c2cc1OC [compound 4, 2-[4-(4-Methylcinnamoyl)-piperazin-1-yl]-4-amino-6,7-dimethoxyquinazoline]
- Change in blood pressure after 3 hrs. from administration ([1]; SHR, p.o., 3 hrs.): -18 mmHg

Molecule: COc1cc2nc(N3CCN(C(=O)C=Cc4ccc(C)o4)CC3)nc(N)c2cc1OC [compound 30, 2-{4-[3-(5-Methylfuran-2-yl)-acryloyl]-piperazin-1-yl}-4-amino-6,7-dimethoxyquinazoline]
- Changes in average blood pressures after administration ([1]; SHR, p.o., 1 mg./kg., 1 hr.): -13 mmHg
- Changes in average blood pressures after administration ([1]; SHR, p.o., 1 mg./kg., 3 hrs.): -12 mmHg
- Changes in average blood pressures after administration ([1]; SHR, p.o., 1 mg./kg., 6 hrs.): -15 mmHg
- Changes in average blood pressures after administration ([1]; SHR, p.o., 1 mg./kg., 24 hrs.): 0 mmHg

Molecule: 2-{4-[3-(5-Chlorothiophen-2-yl)-acryloyl]-piperazin-1-yl}-4-amino-6,7-dimethoxyquinazoline [compound 42]
- Changes in average blood pressures after administration ([1]; SHR, p.o., 3 mg./kg., 1 hr.): -6 mmHg
- Changes in average blood pressures after administration ([1]; SHR, p.o., 3 mg./kg., 3 hrs.): -6 mmHg
- Changes in average blood pressures after administration ([1]; SHR, p.o., 3 mg./kg., 6 hrs.): -7 mmHg
- Changes in average blood pressures after administration ([1]; SHR, p.o., 3 mg./kg., 24 hrs.): -2 mmHg

Molecule: COc1cc2nc(N3CCN(C(=O)C=Cc4ccc(Cl)o4)CC3)nc(N)c2cc1OC [compound 34, 2-{4-[3-(5-chlorofuran-2-yl)-acryloyl]-piperazin-1-yl}-4-amino-6,7-dimethoxyquinazoline]
- Changes in average blood pressures after administration ([1]; SHR, p.o., 3 mg./kg., 1 hr.): -20 mmHg
- Changes in average blood pressures after administration ([1]; SHR, p.o., 3 mg./kg., 3 hrs.): -26 mmHg
- Changes in average blood pressures after administration ([1]; SHR, p.o., 3 mg./kg., 6 hrs.): -28 mmHg
- Changes in average blood pressures after administration ([1]; SHR, p.o., 3 mg./kg., 24 hrs.): 0 mmHg

Molecule: COc1cc2nc(N3CCN(C(=O)C=Cc4sccc4C)CC3)nc(N)c2cc1OC [compound 37, 2-{4-[3-(3-Methylthiophen-2-yl)-acryloyl]-piperazin-1-yl}-4-amino-6,7-dimethoxyquinazoline]
- Changes in average blood pressures after administration ([1]; SHR, p.o., 3 mg./kg., 1 hr.): -18 mmHg
- Changes in average blood pressures after administration ([1]; SHR, p.o., 3 mg./kg., 3 hrs.): -18 mmHg
- Changes in average blood pressures after administration ([1]; SHR, p.o., 3 mg./kg., 6 hrs.): -18 mmHg
- Changes in average blood pressures after administration ([1]; SHR, p.o., 3 mg./kg., 24 hrs.): 5 mmHg

Molecule: COc1cc2nc(N3CCCN(C(=O)C=Cc4cccnc4)CC3)nc(N)c2cc1OC [compound 48, 2-{4-[3-(Pyridin-3-yl)-acryloyl]-homopiperazin-1-yl}-4-amino-6,7-dimethoxyquinazoline]
- Changes in average blood pressures after administration ([1]; SHR, p.o., 3 mg./kg., 1 hr.): -9 mmHg
- Changes in average blood pressures after administration ([1]; SHR, p.o., 3 mg./kg., 3 hrs.): 0 mmHg
- Changes in average blood pressures after administration ([1]; SHR, p.o., 3 mg./kg., 6 hrs.): 0 mmHg
- Changes in average blood pressures after administration ([1]; SHR, p.o., 3 mg./kg., 24 hrs.): 2 mmHg

Molecule: COc1cc2nc(N3CCN(C(=O)c4ccco4)CC3)nc(N)c2cc1OC [Prazosin, reference compound]
- No. of deceased animal (ICR strain male mice; p.o., 1,250 mg./kg.): 0
- No. of deceased animal (ICR strain male mice; p.o., 2,500 mg./kg.): 0
- No. of deceased animal (ICR strain male mice; p.o., 5,000 mg./kg.): 0
- time of maximum antihypertensive effect from oral administration ([1]; SHR, p.o.): 1 h
- antihypertensive effect, compound compared with prazosin ([1]; SHR, p.o., in words): approximately equal antihypertensive effect to that of the present quinazoline compound after 3 hours
- Changes in blood pressure (BP) after oral administration ([1]; 0.3 mg./kg., 1 hr.): -34±5.6 mm.Hg.
- Changes in heart rate (HR) after oral administration ([1]; 0.3 mg./kg., 1 hr.): 6.3±3.3 no/min.
- Changes in blood pressure (BP) after oral administration ([1]; 0.3 mg./kg., 3 hrs.): -25±3.5 mm.Hg.
- Changes in heart rate (HR) after oral administration ([1]; 0.3 mg./kg., 3 hrs.): 5.3±4.6 no/min.
- Changes in blood pressure (BP) after oral administration ([1]; 0.3 mg./kg., 6 hrs.): -27±4.4 mm.Hg.
- Changes in heart rate (HR) after oral administration ([1]; 0.3 mg./kg., 6 hrs.): 3.2±3.0 no/min.
- Changes in blood pressure (BP) after oral administration ([1]; 0.3 mg./kg., 24 hrs.): -1±4.3 mm.Hg.
- Changes in heart rate (HR) after oral administration ([1]; 0.3 mg./kg., 24 hrs.): 4.3±4.9 no/min.
- Changes in blood pressure (BP) after oral administration ([1]; 1 mg./kg., 1 hr.): -46±2.9 mm.Hg.
- Changes in heart rate (HR) after oral administration ([1]; 1 mg./kg., 1 hr.): 7.0±4.4 no/min.
- Changes in heart rate (HR) after oral administration ([1]; 1 mg./kg., 3 hrs.): 1.5±2.8 no/min.
- Changes in blood pressure (BP) after oral administration ([1]; 1 mg./kg., 6 hrs.): -31±2.9 mm.Hg.
- Changes in heart rate (HR) after oral administration ([1]; 1 mg./kg., 6 hrs.): -9.8±6.1 no/min.
- Changes in blood pressure (BP) after oral administration ([1]; 1 mg./kg., 24 hrs.): -6±1.9 mm.Hg.
- Changes in heart rate (HR) after oral administration ([1]; 1 mg./kg., 24 hrs.): -3.9±2.8 no/min.
- Changes in blood pressure (BP) after oral administration ([1]; 3 mg./kg., 1 hr.): -50±6.5 mm.Hg.
- Changes in heart rate (HR) after oral administration ([1]; 3 mg./kg., 1 hr.): 12.7±7.8 no/min.
- Changes in blood pressure (BP) after oral administration ([1]; 3 mg./kg., 3 hrs.): -31±5.8 mm.Hg.
- Changes in heart rate (HR) after oral administration ([1]; 3 mg./kg., 3 hrs.): 17.8±7.7 no/min.
- Changes in blood pressure (BP) after oral administration ([1]; 3 mg./kg., 6 hrs.): -34±6.2 mm.Hg.
- Changes in heart rate (HR) after oral administration ([1]; 3 mg./kg., 6 hrs.): 9.4±8.3 no/min.
- Changes in blood pressure (BP) after oral administration ([1]; 3 mg./kg., 24 hrs.): -3± 5.8 mm.Hg.
- Changes in heart rate (HR) after oral administration ([1]; 3 mg./kg., 24 hrs.): 26.8±8.3 no/min.
- Changes in average blood pressures after administration ([1]; SHR, p.o., 1 mg./kg., 1 hr.): -46 mmHg
- Changes in average blood pressures after administration ([1]; SHR, p.o., 1 mg./kg., 3 hrs.): -37 mmHg
- Changes in average blood pressures after administration ([1]; SHR, p.o., 1 mg./kg., 6 hrs.): -31 mmHg
- Changes in average blood pressures after administration ([1]; SHR, p.o., 1 mg./kg., 24 hrs.): -6 mmHg
- Changes in average blood pressures after administration ([1]; SHR, p.o., 3 mg./kg., 1 hr.): -50 mmHg
- Changes in average blood pressures after administration ([1]; SHR, p.o., 3 mg./kg., 3 hrs.): -31 mmHg
- Changes in average blood pressures after administration ([1]; SHR, p.o., 3 mg./kg., 6 hrs.): -34 mmHg
- Changes in average blood pressures after administration ([1]; SHR, p.o., 3 mg./kg., 24 hrs.): -3 mmHg

Molecule: COc1cc2nc(N3CCCN(C(=O)C=Cc4ccco4)CC3)nc(N)c2cc1OC [compound 46, 2-{4-[3-(Furan-2-yl)-acryloyl]-homopiperazin-1-yl}-4-amino-6,7-dimethoxyquinazoline]
- Changes in average blood pressures after administration ([1]; SHR, p.o., 3 mg./kg., 1 hr.): -20 mmHg
- Changes in average blood pressures after administration ([1]; SHR, p.o., 3 mg./kg., 3 hrs.): -10 mmHg
- Changes in average blood pressures after administration ([1]; SHR, p.o., 3 mg./kg., 6 hrs.): -12 mmHg
- Changes in average blood pressures after administration ([1]; SHR, p.o., 3 mg./kg., 24 hrs.): -8 mmHg

— patent publication US4189484A, “Antihypertensive quinazoline derivatives” (priority 1977, dated 1980)
